Where two headings read alike, the source gives them in different places. Each block holds one molecule with its values, some of them ahead of it.
What was measured:
[1] = biological target: T1, pteridine reductase (TbPTR1) (Trypanosoma brucei, UniProt O76290); experiment: crystal structure at […] Å; type: biochemical
[2] = biological target: T1, pteridine reductase (TbPTR1); experiment: crystal structure at […] Å; type: biochemical; remark: listed apart in the source
[3] = biological target: T1, pteridine reductase (TbPTR1); experiment: crystal structure at […] Å; type: biochemical; remark: listed apart in the source
[4] = biological target: T1, pteridine reductase (TbPTR1); experiment: crystal structures; type: binding
[5] = biological target: T1, pteridine reductase (TbPTR1); experiment: crystal structure at […] Å; type: biochemical; remark: listed apart in the source

SMILES: Nc1nc(N)nc(NC2CC2)n1 [Cyromazine, N-cyclopropyl-1,3,5-triazine-2,4,6-triamine]
Ki [1]: > 35000 nM

SMILES: Nc1nc2[nH]cc(CCc3ccc(C(=O)N[C@@H](CCC(=O)O)C(=O)O)cc3)c2c(=O)[nH]1 [Pemetrexed, 2-{4-[2-(4-amino-2-oxo-3,5,7-triazabicyclo[4.3.0]nona-3,8,10-trien-9-yl)ethyl]benzoyl}aminopentanedioic acid]
Ki [3]: ~30 nM

SMILES: NC(=O)c1ccc[n+]([C@@H]2O[C@H](COP(=O)(O)OP(=O)(O)OC[C@H]3O[C@@H](n4cnc5c(N)ncnc54)[C@H](OP(=O)(O)O)[C@@H]3O)[C@@H](O)[C@H]2O)c1 [NADP+]
crystal structures (complexes with pemetrexed, trimetrexate, PY848) [4]: Crystals of TbPTR1 in a binary complex with oxidized cofactor (NADP^+) were grown

Next, values leading:

Ki [2]: ~70 nM
SMILES: COc1cc(NCc2ccc3nc(N)nc(N)c3c2C)cc(OC)c1OC [Trimetrexate, 5-methyl-6-[(3,4,5-trimethoxyphenyl)aminomethyl]quinazoline-2,4-diamine]

Ki [5]: ~70 nM
SMILES: COc1ccc(OC)c(CCc2csc3nc(N)nc(N)c23)c1 [PY848, 2,4-diamino-5-[2-(2,5-dimethoxyphenyl)ethyl]thieno[2,3-d]-pyrimidine]

— paper PMC3655514 (Acta crystallographica. Section D, Biological …, 2010)
